Results on two compounds are retold here after patent US20100093847A1, “ANTI-OBESITY ACTIVE AGENT AND ANTI-OBESITY METHOD” (priority 2005, published 2010).

For data set [1], the system named is 3T3-L1 preadipocytes. As to the kind of experiment: Quantitative determination of intracellular lipids with Oilred O during differentiation of 3T3-L1 preadipocytes to adipocytes. It is filed as cell-based. The following applies: FIG. 3 and FIG. 4; added to culture medium during differentiation induction. As to the method:
(§1) Cell Culture: 3T3-L1 preadipocytes were incubated using DMRM culture medium containing 10% (by volume) of FBS at 37° C. in the presence of CO2 (5%). In this connection, as the FBS, one which had been inactivated at 56° C. for 30 minutes was used. As the cells, those which were unused (naïve) and which had been kept in liquid nitrogen were used in each experiment. On a 96 well microplate, 5×10^4 cells of the 3T3-L1 preadipocytes were seeded per well and pre-incubated for 48 hours.
Then, the culture medium was removed from the wells, and DMEM culture medium containing insulin (10 μg/ml), dexametazone (0.25 μg/ml) and IBMX (0.5 mM) was added to the wells, and incubation was further performed for 48 hours. Thereafter, differentiation to adipocytes was induce while repeating medium replacement at intervals of 4 days with the use of DMEM culture medium containing 5 μg/ml of insulin only. […]
Quantitative Determination of Intracellular Lipids with Oilred O: The cells incubated in the 96 well microplate were immobilized with formalin, and then an oilred O solution was added thereto to stain lipids in the cells. […] Subsequently, isopropanol was added to each of the wells to elute the pigment (colorant), and absorbance, i.e., optical density at 490 nm was measured using a microplate reader.

Data set [2] has as its system GPDH (glycerol-3-phosphate-dehydrogenase). As to the kind of experiment: Measurement of GPDH activity in differentiating 3T3-L1 preadipocytes. Type of data set: cell-based. The following applies: FIG. 5; compared with no addition. As to the method: as §1
Then, the culture medium was removed from the wells, and DMEM culture medium containing insulin (10 μg/ml), dexametazone (0.25 μg/ml) and IBMX (0.5 mM) was added to the wells, and incubation was further performed for 48 hours. Thereafter, differentiation to adipocytes was induce while repeating medium replacement at intervals of 4 days with the use of DMEM culture medium containing 5 μg/ml of insulin only. In this procedure, fucoxanthin was added to the culture medium to examine influence thereof on the differentiation induction.
Measurement of GPDH Activity: For measurement of GPDH (glycerol-3-phosphate-dehydrogenase) activity, a GDP H activity measuring kit (manufactured by Hokudo Co., Ltd.) was used. Specifically, 3T3-L1 preadipocytes were pre-incubated on a 24 well microplate) for 48 hours, and then differentiation to adipocytes was induced in the same manner as described above. […]

Data set [3] relates to KK-Ay mice. As to the kind of experiment: Animal experiments: KK-Ay mice fed feed containing fucoxanthinol. It is filed as in vivo. On the procedure: Animals and Feed: For the animal experiments, KK-Ay mice (female; 3-week-old) were used. Feed for the experiments was prepared in accordance with AIN-93G composition (formulation). Amount of lipid in the feed was 13.5%. In the case where fucoxanthinol was added, 0.2% of the lipid in the feed was replaced with fucoxanthinol. After the preparation, the feed was immediately vacuum-packed and stored at −20° C. or lower until feeding.
Breeding and Analysis: Preliminary Breeding was conducted for a week using the feed for the control group, and individuals which grew with no problem were divided into groups each consisting of 6 mice in such a manner that there were no substantial unevennesses in body weight among the groups. With respect to each of the groups, two mice were housed and bred in each plastic cage spread with sterilized wood chips to cover the floor. In the breeding cage, temperature and humidity were kept at 23±1° C. and 50%, respectively, and each of light and dark periods was 12 hours. The mice were allowed to freely take (ingest) the feed and water, and the breeding with each of the feeds for the experiments was carried out for 24 days.
After termination of the feeding period, the mice were fasted for 12 hours. Thereafter, blood samples were collected from neck vessels in the presence of EDTA under anesthesia with (ethyl) ether. After the collection of blood samples, organs were immediately harvested and washed well with physiological saline to sufficiently clear blood therefrom. Livers were weighed and then stored at −40° C. or lower until subjected to analyses. Leptin concentrations and blood-sugar levels in blood were measured using a commercially available kit.

For data set [4], the system named is large intestine cancer cells. The following applies: according to Non-Patent Document 1; cited from earlier work.
For data set [5], the system named is adipocytes (fat cells). The following applies: according to Non-Patent Document 2; cited from earlier work.
Setting [6] is: 24 days feeding, versus control group.
Setting [7] is: after 24 days feeding, versus control group.

Regarding `C\C(C=C=C1C(C)(C)C[C@H](O)C[C@@]1(C)O)=C/C=C/C(C)=C/C=C/C=C(C)/C=C/C=C(\C)C(=O)C[C@@]12O[C@]1(C)C[C@@H](O)CC2(C)C` [fucoxanthinol], the “fat (lipid) accumulation associated with differentiation of 3T3-L1 preadipocytes to adipocytes (optical density at 490 nm, Oilred O)” value in data set [1] is given as “markedly controlled”. Besides, the “relative GPDH activity (relative amount of adipocytes, preadipocytes = 1)” value in data set [2] is on record as “lowered”. The “weight of visceral fat per 100 g of body weight” value in data set [3] (FIG. 6, 0.2% of feed lipid replaced, 24 days, versus control group) is given as “significantly reduced”. The “leptin concentration in blood” value in data set [3] (FIG. 7, 24 days feeding, versus control group) is recorded as “significantly reduced”. The blood sugar level result in data set [3] (FIG. 8, 24 days feeding, versus control group) is on record as “reduced”.
As for fucoxanthin, the “fat (lipid) accumulation associated with differentiation of 3T3-L1 preadipocytes to adipocytes (optical density at 490 nm, Oilred O)” value in data set [1] is listed as “apparently lower than that of fucoxanthinol”. The “relative GPDH activity (relative amount of adipocytes, preadipocytes = 1)” value in data set [2] is reported as “no significant differences”. Also, in data set [3] (setting [6]), the “amount of feed intake” value is on record as “no significant differences” and the “increase in body weight” value is listed as “no significant differences”. For the same compound, in data set [3] (setting [7]), the “weight of hepatic lipid” value was “no significant differences”, the weight of liver result was “no significant differences” and the “weight of small intestine” value is reported as “no significant differences”. The “abnormalities in feed intake, glossiness of hair or action” value in data set [3] (breeding period) is “no abnormalities”. Moreover, the “antiproliferative activity / proliferation of large intestine cancer cells” value in data set [4] was “far stronger antiproliferative activity than that of troglytazone”. Also, the “differentiation suppressing activity on adipocytes” value in data set [5] is listed as “has differentiation suppressing activity on adipocytes”.
